System: influenza
Parameters: species or system Mice
Conditions: mouse, in vivo

## Nc1nc2c(ncn2[C@@H]2O[C@@H]3COP(=O)(O)O[C@H]4[C@@H](O)[C@H](n5cnc6c(=O)[nH]c(N)nc65)O[C@@H]4COP(=O)(O)O[C@H]3[C@H]2O)c(=O)[nH]1 [c-di-GMP]
  viral replication in the nose: facilitate reduction of viral replication in the nose
